Tests used:
human MTP = human MTP (Homo sapiens, UniProt P55157); assay: human MTP activity assay (SPA, 3H-triolein transfer between liposomes); assay type: biochemical; conditions: human MTP-mediated 3H-triolein transfer from donor to acceptor liposomes, 25 min incubation at 37° C., streptavidin-SPA beads
Source text: Such derivatives are clear to those skilled in the art, without undue experimentation, and with reference to the teaching of Burger's Medicinal Chemistry And Drug Discovery, 5th Edition, Vol 1: Principles And Practice, which is incorporated herein by reference. […] MTP inhibitors may be used in the treatment of non-insulin dependent diabetes mellitus, insulin resistance, coronary heart disease, prevention of stroke, pancreatitis, hypercholesterolemia, hypertriglyceridemia, hyperlipemia, mixed dyslipidemia, post-prandial hyperlipemia, atherosclerosis and obesity. The ability of the compounds of this invention to inhibit human MTP activity is measured by an in vitro assay where MTP transfers 3H-triolein between phosphatidylcholine liposomes. The specificity of the compounds of the invention is established by comparing the effects on apoB-100 and apoprotein A-1 production. A specificity of at least 100 is preferred.
The human MTP activity assay was established using SPA technology. Donor liposomes were prepared with 3H-triolein and phosphatidylcholine, while acceptor liposomes contained biotinylated phosphatidylethanolamine and phosphatidylcholine. The MTP-mediated 3H-triolein transfer onto acceptor liposomes was allowed by a 25 min incubation at 37° C., and quantified by the addition of streptavidin-SPA beads.

Sequence of human MTP (P55157 19-894): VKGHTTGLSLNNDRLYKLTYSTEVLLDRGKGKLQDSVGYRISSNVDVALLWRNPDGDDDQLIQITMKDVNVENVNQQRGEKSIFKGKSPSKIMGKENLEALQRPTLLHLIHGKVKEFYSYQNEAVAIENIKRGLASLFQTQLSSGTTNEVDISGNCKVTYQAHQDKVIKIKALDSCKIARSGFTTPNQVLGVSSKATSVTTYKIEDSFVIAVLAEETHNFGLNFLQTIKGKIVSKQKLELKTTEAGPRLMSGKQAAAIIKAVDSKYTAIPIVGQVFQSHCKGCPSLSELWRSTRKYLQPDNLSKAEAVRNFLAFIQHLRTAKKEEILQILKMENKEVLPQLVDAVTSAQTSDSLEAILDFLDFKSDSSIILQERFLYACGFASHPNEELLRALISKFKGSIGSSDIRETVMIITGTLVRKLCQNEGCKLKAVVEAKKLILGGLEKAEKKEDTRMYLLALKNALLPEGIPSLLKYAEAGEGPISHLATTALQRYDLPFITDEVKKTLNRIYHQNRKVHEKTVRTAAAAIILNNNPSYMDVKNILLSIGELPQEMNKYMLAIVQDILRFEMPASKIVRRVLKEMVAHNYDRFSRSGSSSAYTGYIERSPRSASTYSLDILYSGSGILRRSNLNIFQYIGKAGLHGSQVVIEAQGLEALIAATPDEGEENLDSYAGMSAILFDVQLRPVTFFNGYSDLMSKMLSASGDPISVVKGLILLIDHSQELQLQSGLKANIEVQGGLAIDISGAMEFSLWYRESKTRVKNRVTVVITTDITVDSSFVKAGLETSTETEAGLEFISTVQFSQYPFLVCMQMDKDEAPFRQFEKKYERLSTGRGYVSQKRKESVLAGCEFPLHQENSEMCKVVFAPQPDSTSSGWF
Sequence of human MTP (P07237 18-508 partner): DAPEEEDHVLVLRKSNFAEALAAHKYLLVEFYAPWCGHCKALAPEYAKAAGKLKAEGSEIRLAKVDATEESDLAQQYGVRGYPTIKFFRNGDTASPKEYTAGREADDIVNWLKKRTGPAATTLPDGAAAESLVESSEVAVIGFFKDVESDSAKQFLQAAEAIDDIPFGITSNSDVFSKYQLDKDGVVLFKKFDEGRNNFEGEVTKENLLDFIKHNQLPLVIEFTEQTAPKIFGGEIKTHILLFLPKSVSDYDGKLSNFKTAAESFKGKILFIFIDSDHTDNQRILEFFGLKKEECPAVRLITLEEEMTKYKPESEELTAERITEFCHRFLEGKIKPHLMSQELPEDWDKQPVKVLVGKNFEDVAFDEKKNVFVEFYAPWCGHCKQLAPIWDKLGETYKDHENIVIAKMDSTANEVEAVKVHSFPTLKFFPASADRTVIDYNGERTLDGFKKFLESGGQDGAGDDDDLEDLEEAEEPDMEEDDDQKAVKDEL

Row | Molecule | IC50 (human MTP) [nM] | melting point [°C]
1 | 5-Methyl-4′-trifluoromethyl-biphenyl-2-carboxylic acid [-(4-(1H-pyrrol-2-ylmethyl)-piperazin-1-yl)-phenyl]-amide [Example 64] | 0.26 | 
2 | Cc1ccc(C(=O)Nc2ccc(N3CCN(Cc4cccc(C#N)c4)CC3)cc2)c(-c2ccc(C(C)C)cc2)c1 [Example 2, 4′-Isopropyl-5-methyl-biphenyl-2-carboxylic acid [4-[4-(3-cyano-benzyl)-piperazin-1-yl]-phenyl]-amide] | 0.3 | 
3 | COc1cccc(C(=O)Nc2ccc(N3CCN(Cc4cccc(C#N)c4)CC3)cc2)c1-c1ccc(C(C)C)cc1 [Example 3, 4′-Isopropyl-6-methoxy-biphenyl-2-carboxylic acid [4-[4-(3-cyano-benzyl)-piperazin-1-yl]-phenyl]-amide] | 0.2 | 
4 | Cc1cccc(C(=O)Nc2ccc(N3CCN(Cc4cccc(C#N)c4)CC3)cc2)c1-c1ccc(C(C)C)cc1 [Example 4, 4′-Isopropyl-6-methyl-biphenyl-2-carboxylic acid [4-[4-(3-cyano-benzyl)-piperazin-1-yl]-phenyl]-amide] | 0.2 | 
5 | Cc1cccc(C(=O)Nc2ccc(N3CCN(Cc4cccc(C#N)c4)CC3)cc2)c1-c1ccc(C(F)(F)F)cc1 [Example 5, 6-Methyl-4′-trifluoromethyl-biphenyl-2-carboxylic acid [4-[4-(3-cyano-benzyl)-piperazin-1-yl]-phenyl]-amide] | 0.2 | 
6 | Cc1ccc(C(=O)Nc2ccc(N3CCN(Cc4cccc(-c5nc(C)no5)c4)CC3)cc2)c(-c2ccc(C(C)C)cc2)c1 [Example 6] | 0.3 | 
7 | NC(=O)CN1CCN(c2ccc(NC(=O)c3ccccc3-c3ccc(C(F)(F)F)cc3)cc2)CC1 [Example 37, 4′-Trifluoromethyl-biphenyl-2-carboxylic acid [4-(4-carbamoylmethyl-piperazin-1-yl)-phenyl]-amide] | 8 | 
8 | COc1cccc(C(=O)Nc2ccc(N3CCN(CC(N)=O)CC3)cc2)c1-c1ccc(C(C)C)cc1 [Example 38, 4′-Isopropyl-6-methoxy-biphenyl-2-carboxylic acid [4-(4-carbamoylmethyl-piperazin-1-yl)-phenyl]-amide] | 0.3 | 
9 | Cc1cccc(C(=O)Nc2ccc(N3CCN(CC(N)=O)CC3)cc2)c1-c1ccc(C(C)C)cc1 [Example 39, 4′-Isopropyl-6-methyl-biphenyl-2-carboxylic acid (4-(4-carbamoylmethyl-piperazin-1-yl)-phenyl]-amide] | 0.3 | 
10 | Cc1noc(-c2cccc(CN3CCN(c4ccc(NC(=O)c5cccc(C)c5-c5ccc(C(C)C)cc5)cc4)CC3)c2)n1 [Example 61, 4′-Isopropyl-6-methyl-biphenyl-2-carboxylic acid (4-(4-(3-(3-methyl-[1,2,4]oxadiazol-5-yl)-benzyl)-piperazine-1-yl)-phenyl)-amide] | 0.2 | 
11 | O=C(Nc1ccc(N2CCN(Cc3ccc[nH]3)CC2)cc1)c1ccccc1-c1ccc(C(F)(F)F)cc1 [Example 62, 4′-Trifluoromethyl-biphenyl-2-carboxylic acid [4-(4-(1H-pyrrol-2-ylmethyl)-piperazin-1-yl)-phenyl]-amide] | 0.3 | 
12 | Cc1ccc(C(=O)Nc2ccc(N3CCN(Cc4ccc[nH]4)CC3)cc2)c(-c2ccc(C(C)C)cc2)c1 [Example 63, 4′-Isopropyl-5-methyl-biphenyl-2-carboxylic acid [4-(4-(1H-pyrrol-2-ylmethyl)-piperazin-1-yl)-phenyl]-amide] | 0.7 | 
13 | O=C(Nc1ccc(N2CCN(Cc3c[nH]c4ccc(F)cc34)CC2)cc1)c1ccccc1-c1ccc(C(F)(F)F)cc1 [Example 73, 4′-Trifluoromethyl-biphenyl-2-carboxylic acid {4-[4-(5-fluoro-1H-indol-3-ylmethyl)-piperazin-1-yl]-phenyl}-amide] |  | 168 to 170
14 | COc1cccc(C(=O)Nc2ccc(N3CCN(Cc4cccc(-c5nc(C)no5)c4)CC3)cc2)c1-c1ccc(C(C)C)cc1 [Example 74, 4′-Isopropyl-6-methoxy-biphenyl-2-carboxylic acid (4-(4-(3-(3-methyl-[1,2,4]oxadiazol-5-yl)-benzyl)-piperazine-1-yl)-phenyl)-amide] |  | 180 to 182
15 | O=C(Nc1ccc(N2CCN(Cc3cccc(-c4noc(C(F)(F)F)n4)c3)CC2)cc1)c1ccccc1-c1ccc(C(F)(F)F)cc1 [Example 75, 4′-Trifluoromethyl-biphenyl-2-carboxylic acid (4-{4-[3-(5-trifluoromethyl-[1,2,4]oxadiazol-3-yl)-benzyl]-piperazin-1-yl}-phenyl)-amide] |  | 188 to 190
16 | N#Cc1cccc(CN2CCN(c3ccc(NC(=O)c4ccccc4-n4cccc4)cc3)CC2)c1 [Example 85, N-{4-[4-(3-Cyano-benzyl)-piperazin-1-yl]-phenyl}-2-pyrrol-1-yl-benzamide] |  | 174
17 | N#Cc1cccc(CN2CCN(c3ccc(NC(=O)c4ccccc4-c4ccccn4)cc3)CC2)c1 [Example 86, N-{4-[4-(3-Cyano-benzyl)-piperazin-1-yl]-phenyl}-2-pyridin-2-yl-benzamide] |  | 169 to 171

Source: patent publication US20040044008A1, “Use of therapeutic benzamide derivatives” (priority 2000, published 2004)
